Values joined by “and” are separate entries in the source; they are usually repeats but may differ in a detail not shown here. Equal values may be shown once. Each block holds one molecule with its values, some of them ahead of it.
Columns and labels:
human DIC (SLC25A10) = target: T1, human DIC (SLC25A10) (Homo sapiens, UniProt Q9UBX3); test: Differential scanning fluorimetry (nanoDSF) thermal stability shift assay; assay type: binding; details: 1 mM nucleotide, pH 6.0, single repeats (source data Fig. 4A)
T1 construct: His8 (N, cleaved yes); Factor Xa protease cleavage site (N, cleaved yes); made in house; host or cells: Saccharomyces cerevisiae protease-deficient strain BJ2186
T1 sequence (Q9UBX3 1-287): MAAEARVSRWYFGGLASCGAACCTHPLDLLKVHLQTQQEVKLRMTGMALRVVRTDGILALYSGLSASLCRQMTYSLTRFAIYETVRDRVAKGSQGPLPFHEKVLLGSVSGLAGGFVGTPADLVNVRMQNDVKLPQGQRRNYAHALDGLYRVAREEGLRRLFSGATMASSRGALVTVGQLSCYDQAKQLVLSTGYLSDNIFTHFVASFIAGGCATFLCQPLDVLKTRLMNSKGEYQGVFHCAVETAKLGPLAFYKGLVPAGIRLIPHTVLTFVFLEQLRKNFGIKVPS
Excerpt: (§1) UCP1 is phylogenetically related to mitochondrial dicarboxylate carriers, gaining thermogenic properties as a later evolutionary development (Hughes et al, [2009]; Robinson et al, [2008]). The mitochondrial dicarboxylate carrier (DIC, SLC25A10) and oxoglutarate carrier (OGC, SLC25A11) are most closely related to UCP1 (Gaudry et al, [2019]; Hughes et al, [2009]) and share many residues involved in nucleotide binding in UCP1, such as the arginine triplet at the contact points, R92 and Q85 (Jones et al, [2024]). Given the similarity of the central cavity of UCP1, OGC and DIC, we tested whether the dicarboxylate carriers have the ability to bind nucleotides. For this purpose, we purified human DIC and OGC, and tested whether nucleotides were able to generate a thermostability shift, as observed for their physiological substrates (Pyrihová et al, [2024]). However, all tested nucleotides caused a negligible shift with both DIC or OGC at all pH values tested between 6.0 and 8.0 (Fig. 4A; Appendix Fig. S5). Thus, despite having many residues in common (Fig. 4B–D), UCP1 has evolved to have a few specific residues that allow high-affinity binding of nucleotides without a strong selection for nucleobase.
(§2) Differential scanning fluorimetry (nanoDSF) (Alexandrov et al, [2008]) was carried out with 2 µg UCP1, DIC or OGC protein (100 mM MES/HEPES, pH range 6.0–8.0, 25 mM NaCl, 1 mM TCEP, 0.01% lauryl maltose neopentyl glycol and 0.01 mg/mL tetraoleoyl cardiolipin) and, when required, 1 mM nucleotide, as indicated. The proteins have the following number of tryptophans: UCP1 (two); OGC (two); DIC (one). The samples were loaded into nanoDSF-grade standard glass capillaries. The temperature was increased by […] every minute from 25 to 95 °C, the intrinsic fluorescence was measured in a Prometheus NT.48 nanoDSF device, and the apparent Tm was calculated with the PR.ThermControl software (NanoTemper Technologies).

human OGC (SLC25A11) = target: T2, human OGC (SLC25A11) (Homo sapiens, UniProt Q02978); test: as above; assay type: binding; details: 1 mM nucleotide, pH 6.0, single repeats (source data Fig. 4A)
T2 construct: His8 (N, cleaved yes); Factor Xa protease cleavage site (N, cleaved yes); made in house; host or cells: Saccharomyces cerevisiae strain W303.1B
T2 sequence (Q02978 1-314): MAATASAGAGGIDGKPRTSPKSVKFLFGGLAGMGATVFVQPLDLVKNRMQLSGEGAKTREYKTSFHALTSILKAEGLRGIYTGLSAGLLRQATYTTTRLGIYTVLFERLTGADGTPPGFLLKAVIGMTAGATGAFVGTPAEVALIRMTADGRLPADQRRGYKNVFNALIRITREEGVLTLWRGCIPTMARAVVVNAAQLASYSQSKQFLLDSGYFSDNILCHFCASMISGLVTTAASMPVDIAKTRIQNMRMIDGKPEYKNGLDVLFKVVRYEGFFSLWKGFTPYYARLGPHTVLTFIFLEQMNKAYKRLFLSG
Excerpt: as §1, §2

UCP1 [1] = target: T3, UCP1 (Homo sapiens, UniProt P25874); test: Isothermal titration calorimetry of nucleotide binding; parameters: isotherm data point (enthalpy change per injection): unit not given here; details: for isotherm data point (enthalpy change per injection): representative isotherm;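 as to all read-outs here: purified human UCP1 in cacodylate buffer with lauryl maltose neopentyl glycol and cardiolipin, titrated with nucleotides, isotherms fitted by one-site model yielding ΔH, Kd and stoichiometry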
T3 construct: His8 (N, cleaved yes); Factor Xa protease cleavage site (N, cleaved yes); made in house; host or cells: Saccharomyces cerevisiae strain W303.1B
T3 sequence (P25874 1-307): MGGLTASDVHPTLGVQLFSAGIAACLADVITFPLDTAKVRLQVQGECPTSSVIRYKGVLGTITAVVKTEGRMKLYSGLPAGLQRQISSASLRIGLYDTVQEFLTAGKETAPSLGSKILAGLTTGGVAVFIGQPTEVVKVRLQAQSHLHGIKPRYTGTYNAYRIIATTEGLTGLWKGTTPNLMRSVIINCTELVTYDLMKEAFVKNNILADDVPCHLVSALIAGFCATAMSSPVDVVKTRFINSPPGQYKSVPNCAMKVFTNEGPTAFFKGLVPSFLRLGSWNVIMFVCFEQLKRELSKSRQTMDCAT

UCP1 [2] = target: T3, UCP1; test: Liposome reconstitution and proton conductance assay (pyranine fluorescence); assay type: biochemical; details: UCP1 proteoliposomes, 200 µM oleic acid alone, 2.5 µM valinomycin; single reconstitutions
[3] = target: T4, human uncoupling protein 1 (human, UniProt P25874); test: cryo-EM structure; UCP1, PMb65 and PMb71 mixed stoichiometrically, overnight at 4 °C; complex separated by SEC (20 mM MES pH 6.0, 150 mM NaCl, 0.02% lauryl maltose neopentyl glycol, 0.02 mg/mL tetraoleoyl cardiolipin, 1 mM TCEP); 2 mM UTP and 2 mM D-maltose added; 3.03 Å; details: both partners purified
T4 construct: human uncoupling protein 1 (UCP1, SLC25A7), Uniprot P25874; Detergent-solubilised, with tetraoleoyl cardiolipin; also called UCP1; SLC25A7; source: Saccharomyces cerevisiae W303.1B, purified from mitochondria (Ni Sepharose, on-column Factor Xa cleavage); not shown: His8, N-terminal, cleaved

change in apparent melting temperature (ΔTm) of hDIC (human DIC (SLC25A10)): 1.0 and 0.5 and 0.8 | change in apparent melting temperature (ΔTm) of hOGC (human OGC (SLC25A11)): 0.7 and 0.4 | binding affinity to UCP1 (in words) (UCP1 [1]; ITC): highest binding affinities | Kd (UCP1 [1]; ITC, pH 6.0, 20 °C, mean ± standard deviation of three biological repeats (Fig. 2A-E)): 880 ± 120 nM | Kd (UCP1 [1]; ITC, single biological repeats (source data Fig. 2F)): 810 nM and 800 nM and 1020 nM | isotherm data point (enthalpy change per injection) (UCP1 [1]; Molar ratio (Nucleotide/UCP) 0.120417, pH 6.0, 20 °C): -35.3409 | isotherm data point (enthalpy change per injection) (UCP1 [1]; Molar ratio (Nucleotide/UCP) 0.428528, pH 6.0, 20 °C): -34.4517 | isotherm data point (enthalpy change per injection) (UCP1 [1]; Molar ratio (Nucleotide/UCP) 0.491383, pH 6.0, 20 °C): -33.5364 | isotherm data point (enthalpy change per injection) (UCP1 [1]; Molar ratio (Nucleotide/UCP) 0.554656, pH 6.0, 20 °C): -34.076 | isotherm data point (enthalpy change per injection) (UCP1 [1]; Molar ratio (Nucleotide/UCP) 0.618348, pH 6.0, 20 °C): -33.0757 | isotherm data point (enthalpy change per injection) (UCP1 [1]; Molar ratio (Nucleotide/UCP) 0.682464, pH 6.0, 20 °C): -31.8617 | isotherm data point (enthalpy change per injection) (UCP1 [1]; Molar ratio (Nucleotide/UCP) 0.811976, pH 6.0, 20 °C): -26.1456 | isotherm data point (enthalpy change per injection) (UCP1 [1]; Molar ratio (Nucleotide/UCP) 0.877378, pH 6.0, 20 °C): -22.2535 | isotherm data point (enthalpy change per injection) (UCP1 [1]; Molar ratio (Nucleotide/UCP) 0.943214, pH 6.0, 20 °C): -16.8687 | isotherm data point (enthalpy change per injection) (UCP1 [1]; Molar ratio (Nucleotide/UCP) 1.0762, pH 6.0, 20 °C): -7.301 | isotherm data point (enthalpy change per injection) (UCP1 [1]; Molar ratio (Nucleotide/UCP) 1.14336, pH 6.0, 20 °C): -4.354 | isotherm data point (enthalpy change per injection) (UCP1 [1]; Molar ratio (Nucleotide/UCP) 1.21096, pH 6.0, 20 °C): -2.46 | isotherm data point (enthalpy change per injection) (UCP1 [1]; Molar ratio (Nucleotide/UCP) 1.41647, pH 6.0, 20 °C): -1.066 | isotherm data point (enthalpy change per injection) (UCP1 [1]; Molar ratio (Nucleotide/UCP) 1.69692, pH 6.0, 20 °C): -0.2462 | isotherm data point (enthalpy change per injection) (UCP1 [1]; Molar ratio (Nucleotide/UCP) 1.76819, pH 6.0, 20 °C): 0.1511 | isotherm data point (enthalpy change per injection) (UCP1 [1]; Molar ratio (Nucleotide/UCP) 1.91217, pH 6.0, 20 °C): -0.4754 | isotherm data point (enthalpy change per injection) (UCP1 [1]; Molar ratio (Nucleotide/UCP) 1.98488, pH 6.0, 20 °C): 0.1711
Molecule: Nc1ncnc2c1ncn2[C@@H]1O[C@H](COP(=O)(O)OP(=O)(O)OP(=O)(O)O)[C@@H](O)[C@H]1O [ATP, adenosine triphosphate]

Molecule: CCCCCCCC/C=C\CCCCCCCC(=O)O [OA, oleic acid]
Proton influx rate (UCP1 [2]): 908.51 nmol H+/min and 699.43 nmol H+/min and 609.97 nmol H+/min

binding result [3]: binds
B1: Pro-macrobody PMb71 (VHH)
VHH: QVQLVESGGGLVQAGDSLRLSCAASGLTLKNYAMGWFRQAPGKEHEFVAVISWSGSGTSYADSVEGRFTISRDNAKNTAFLQMSSLKPEDTAVYYCAARDGGYGSRWPDEYTYWGQGTQVTVPP
notes: llama nanobody CA9871; Expressed from the vector pBXNPHM3 (Addgene 110099); also called CA9871; source: E. coli MC1061, purified (Ni-NTA, 3C cleavage, Strep-Tactin XT); not shown: His-tagged MBP, N-terminal, cleaved
